Assay results reported in publication PMC8268581, “Identification of 3,4-Dihydro-2H,6H-pyrimido[1,2-c][1,3]benzothiazin-6-imine Derivatives as Novel Selective Inhibitors of Plasmodium falciparum Dihydroorotate Dehydrogenase” (International Journal of Molecular Sciences, 2021).
Read-outs that look alike come from different tables or passages of the source.

How the values were obtained:
[1] = target: T1, PfDHODH (Plasmodium falciparum, UniProt Q08210); assay: PfDHODH inhibition assay (DCIP end-point, 384-well); format: biochemical
T1 construct: encoding amino acid residues 158 to 569 fused to a His6-SUMO tag in its N-terminus; His6-SUMO (N, cleaved yes); made in house; host or cells: E. coli BL21 Star (DE3), pETSUMO/PfDHODH
Protocol: The screening of 40,400 compounds was conducted in 384-well plates by adapting the end-point assay reported before. First, 1 µL of 200 µM compound was transferred into 384-well plates using a Benchtop Multi-Pipetter EDR-384SR (Biotech Co., Ltd., Tokyo, Japan). […] Next, 38 µL of assay mix (100 mM HEPES-NaOH pH 7.5, 5% (v/v) glycerol, 150 mM NaCl, 0.05% (v/v) Triton X-100, 15 µM decylubiquinone (dUQ, Sigma), 120 µM 2,6-dichlorophenolindophenol (DCIP, Sigma), and 20 nM PfDHODH) were dispensed into all wells and mixed at 600 rpm for 1 min by a MixMate®® (Eppendorf). The reaction was started by the addition of 5 µL of 1.8 mM L-DHO (Sigma) as the substrate and mixed as described above for 20 s. The absorbance at 600 nm was recorded using a SpectraMax®® Paradigm®® Multi-Mode Microplate Reader (Molecular Devices) before (t0) and after 20 min (t20) incubation at room temperature. The readings at t0 were subtracted from t20, and PfDHODH inhibition was calculated as the inhibition relative to the negative and positive controls in a single-point assay. Hits were defined as compounds inhibiting more than 50% of PfDHODH activity at 4.5 µM. The quality of the screening system was evaluated by calculating statistical parameters: Z′-factor, S/N, S/B, SW, and CV, as previously reported. The IC50 values of the hit compounds were determined using the same assay system containing serial dilutions of each compound in triplicates (22.7, 6.8, 2.27, 0.68, 0.227, 0.068, 0.023, 0.007, 0.002, 0.0007 µM) using GraphPad Prism 8.0 software (GraphPad Software Inc., San Diego, CA, USA).

[2] = target: T2, HsDHODH (Homo sapiens, UniProt Q02127); assay: HsDHODH counter-assay; format: biochemical; details: purified recombinant HsDHODH, tested at 4.5 µM; read-out: IC50 DHODH Hs
T2 construct: made in house
Protocol: Selected hit compounds from PfDHODH screening were tested for potential inhibition against HsDHODH at 4.5 µM. The HsDHODH used in this study was purified as previously reported. The HsDHODH assay was performed similarly to that for PfDHODH, but in an assay mix consisting of 50 mM Tris-HCl pH 8.0, 0.1% (v/v) Triton X-100, 2 mM potassium cyanide (KCN, Wako), 60 µM dUQ, and 120 µM DCIP, with the reaction started by the addition of 200 µM L-DHO (final concentration) in triplicate. For this assay, DMSO was used as a negative control and 10 µM of lapachol was used as a positive control (100% inhibition). The relative inhibition was calculated as described above.

[3] = Cytotoxicity assay, DLD-1 (Cell Counting Kit-8); format: cell-based; details: DLD-1 human colorectal adenocarcinoma cells
Protocol: Human dermal fibroblast cells (HDF, Zenbio, Inc., Durham, NC, USA) were cultured in Dulbecco’s Modified Eagle Medium/Nutrient Mixture F-12 medium (DMEM/F12, Gibco), human pancreatic carcinoma cells (PANC-1, DS Pharma Biomedical, Co., Ltd.) were cultured in DMEM (Gibco), and human colorectal adenocarcinoma cells (DLD-1, Taiho Pharmaceutical Company) were cultured in RPMI-1640 medium (FUJIFILM Wako Pure Chemicals). The culture mediums were supplemented with 10% (v/v) heat-inactivated fetal bovine serum (Gibco) and the cells were maintained at 37 °C under 5% CO2.
HDF, PANC-1, and DLD-1 were seeded at 2.5 × 10^4 cells/well on a 96-well plate and incubated at 37 °C under 5% CO2 overnight. The cells were then washed with PBS and the medium was replaced with 99 µL of fresh media. Then, 1 µL of the compounds or DMSO was added to the respective wells. As controls, wells containing 1% (v/v) DMSO in column 1 and wells containing only the culture medium in column 12 were used as the negative and positive controls, respectively. After 48 h of incubation, the cells were washed with PBS, and 99 µL of fresh media was replaced, followed by the addition of 10 µL of Cell Counting Kit-8 (Dojindo) to each well. After 3 h of incubation, the absorbance was measured at 450 nm using a SpectraMax®® Paradigm®® Multi-Mode microplate Reader. The calculation of cell viability in the test well was based on the absorbance of control wells according to the manufacturer’s protocol. The mean of quadruplet values was used to calculate the CC50 using GraphPad Prism 8.0 software.

[4] = recombinant tag-free PfDHODH, 20 min, serial dilutions 0.0007-22.7 µM, read-out: IC50 DHODH Pf

T1 sequence (Q08210 158-569): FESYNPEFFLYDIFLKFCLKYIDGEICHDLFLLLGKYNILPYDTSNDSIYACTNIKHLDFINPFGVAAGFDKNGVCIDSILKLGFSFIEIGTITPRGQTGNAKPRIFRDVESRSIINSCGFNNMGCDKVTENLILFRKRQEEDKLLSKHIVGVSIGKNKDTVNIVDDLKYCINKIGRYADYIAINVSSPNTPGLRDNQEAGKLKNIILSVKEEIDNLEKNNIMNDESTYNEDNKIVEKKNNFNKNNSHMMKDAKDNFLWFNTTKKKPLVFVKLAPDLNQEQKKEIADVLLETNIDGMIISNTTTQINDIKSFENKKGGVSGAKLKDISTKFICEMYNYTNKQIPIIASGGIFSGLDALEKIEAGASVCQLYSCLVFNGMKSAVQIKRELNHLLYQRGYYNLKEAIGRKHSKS
T2 sequence (Q02127 whole entry): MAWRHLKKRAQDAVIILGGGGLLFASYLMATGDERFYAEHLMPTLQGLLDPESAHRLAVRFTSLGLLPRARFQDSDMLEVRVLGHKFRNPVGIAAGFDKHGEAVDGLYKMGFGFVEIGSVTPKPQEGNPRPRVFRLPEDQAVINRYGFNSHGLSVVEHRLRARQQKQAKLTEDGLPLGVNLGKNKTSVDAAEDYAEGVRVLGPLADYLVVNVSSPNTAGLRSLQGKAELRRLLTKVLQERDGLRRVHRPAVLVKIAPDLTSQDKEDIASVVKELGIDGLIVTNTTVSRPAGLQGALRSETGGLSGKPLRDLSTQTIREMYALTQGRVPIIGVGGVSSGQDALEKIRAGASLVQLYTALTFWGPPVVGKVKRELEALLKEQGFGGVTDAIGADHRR

Compound	IC50 [1, 4]	IC50 [2]	EC50 at 48 h [3]	IC50 [1]	fold increase in the PfDHODH IC50 compared to 1 [1]
N=C1Sc2cc(-c3ccc4ccccc4c3)ccc2C2=NCCCN12 [Compound 1]	0.65 ± 0.05 µM	> 4.5 µM	> 10 µM	–	–
N=C1Sc2cc(-c3ccc4c(c3)OCO4)ccc2C2=NCCCN12 [Compound 3]	1.18 ± 0.04 µM	> 4.5 µM	> 10 µM	–	–
N=C1Sc2cc(-c3ccc4c(c3)OCCO4)ccc2C2=NCCCN12 [Compound 4]	0.97 ± 0.08 µM	> 4.5 µM	> 10 µM	–	–
N=C1Sc2cc(-c3ccc4cnccc4c3)ccc2C2=NCCCN12 [Compound 5]	0.96 ± 0.09 µM	> 4.5 µM	> 10 µM	–	–
N=C1Sc2cc(-c3ccc4c(C(=O)OC(F)(F)F)c[nH]c4c3)ccc2C2=NCCCN12 [Compound 6]	0.7 ± 0.04 µM	> 4.5 µM	> 10 µM	–	–
N=C1Sc2cc(-c3cc4ccccc4o3)ccc2C2=NCCCN12 [Compound 7]	1.3 ± 0.05 µM	> 4.5 µM	> 10 µM	–	–
N=C1Sc2cc(/C=C/c3ccccc3)ccc2C2=NCCCN12 [Compound 8]	–	> 4.5 µM	> 10 µM	1.07 ± 0.05 µM	–
CC(C)(C)N=C1Sc2cc(-c3cc4ccccc4s3)ccc2C2=NCCCN12 [Compound 10]	3.84 ± 0.09 µM	> 4.5 µM	> 10 µM	–	6 fold
N=C1Sc2cc(-c3ccccc3)ccc2C2=NCCCN12 [Compound 12]	0.68 ± 0.05 µM	> 4.5 µM	> 10 µM	–	–
COC(=O)c1ccc(-c2ccc3c(c2)SC(=N)N2CCCN=C32)cc1 [Compound 13]	1.22 ± 0.05 µM	> 4.5 µM	> 10 µM	–	–
N#Cc1ccc(-c2ccc3c(c2)SC(=N)N2CCCN=C32)cc1 [Compound 14]	3.89 ± 0.23 µM	> 4.5 µM	> 10 µM	–	–
N=C1Sc2cc(-c3ccc(C(F)(F)F)cc3)ccc2C2=NCCCN12 [Compound 15]	2.31 ± 0.11 µM	> 4.5 µM	> 10 µM	–	–
CSc1ccc(-c2ccc3c(c2)SC(=N)N2CCCN=C32)cc1 [Compound 17]	0.96 ± 0.07 µM	> 4.5 µM	> 10 µM	–	–
N=C1Sc2cc(-c3ccc(OC(F)(F)F)cc3)ccc2C2=NCCCN12 [Compound 18]	1.43 ± 0.06 µM	> 4.5 µM	> 10 µM	–	–
N=C1Sc2cc(-c3ccc(C(=O)c4ccccc4)cc3)ccc2C2=NCCCN12 [Compound 19]	1.07 ± 0.05 µM	> 4.5 µM	> 10 µM	–	–
C#CCOCc1ccc(C(=O)c2ccc(-c3ccc4c(c3)SC(=N)N3CCCN=C43)cc2)cc1 [Compound 20]	1.21 ± 0.06 µM	> 4.5 µM	> 10 µM	–	–
N=C1Sc2cc(-c3cccc([N+](=O)[O-])c3)ccc2C2=NCCCN12 [Compound 21]	3.68 ± 0.31 µM	> 4.5 µM	> 10 µM	–	–
CC(C)Oc1cccc(-c2ccc3c(c2)SC(=N)N2CCCN=C32)c1 [Compound 22]	1.56 ± 0.05 µM	> 4.5 µM	> 10 µM	–	–
CCc1cccc(-c2ccc3c(c2)SC(=N)N2CCCN=C32)c1 [Compound 25]	1.52 ± 0.08 µM	> 4.5 µM	> 10 µM	–	–
N=C1Sc2cc(-c3ccccc3-c3ccccc3)ccc2C2=NCCCN12 [Compound 27]	3.3 ± 0.1 µM	> 4.5 µM	> 10 µM	–	–
c1ccc(-c2ccc3c(c2)SN2CCCN=C32)cc1 [Compound 30]	4.26 ± 0.12 µM	> 4.5 µM	> 10 µM	–	–
c1ccc2c(-c3ccc4c(c3)SN3CCCN=C43)cccc2c1 [Compound 31]	1.1 ± 0.08 µM	> 4.5 µM	> 10 µM	–	–
c1cc2c(cc1-c1ccc3c(c1)SN1CCCN=C31)OCO2 [Compound 32]	1.29 ± 0.09 µM	> 4.5 µM	> 10 µM	–	–
c1ccc(-c2ccc3c(c2)C2=NCCCN2S3)cc1 [Compound 36]	1.51 ± 0.04 µM	> 4.5 µM	> 10 µM	–	–
COC(=O)c1ccc(-c2ccc3c(c2)SN2CCCN=C32)cc1 [Compound 37]	1.15 ± 0.07 µM	> 4.5 µM	> 10 µM	–	–
O=[N+]([O-])c1ccc(-c2ccc3c(c2)SN2CCCN=C32)cc1 [Compound 39]	1.3 ± 0.04 µM	> 4.5 µM	> 10 µM	–	–
COC(=O)c1cccc(-c2ccc3c(c2)SN2CCCN=C32)c1 [Compound 40]	1.43 ± 0.02 µM	> 4.5 µM	> 10 µM	–	–
COc1ccccc1-c1ccc2c(c1)SN1CCCN=C21 [Compound 42]	1.18 ± 0.05 µM	> 4.5 µM	> 10 µM	–	–
O=[N+]([O-])c1ccccc1-c1ccc2c(c1)SN1CCCN=C21 [Compound 43]	1.15 ± 0.06 µM	> 4.5 µM	> 10 µM	–	–
